Literature values in patent US20230027739A1, “ANTIGEN-BINDING AND ANTIGEN D[…]” (Entrada Therapeutics, Inc., priority 2021, published 2023).

Key:
[1] = for Amino Acid SASA Values, Theoretical: theoretical values as reported by Tien, et al.
[2] = for Amino Acid Hydrophobicity, Eisenberg and Weiss: hydrophobicity scale of Eisenberg and Weiss; for Amino Acid Hydrophobicity, Engleman et al.: hydrophobicity scale of Engleman et al.; for Amino Acid Hydrophobicity, Hoop and Woods: hydrophobicity scale of Hoop and Woods; for Amino Acid Hydrophobicity, Janin: hydrophobicity scale of Janin; for Amino Acid Hydrophobicity, Kyrie and Doolittle: hydrophobicity scale of Kyrie and Doolittle

CC(C)[C@H](N)C(=O)O [Valine]
Amino Acid SASA Values, Miller et al. (1987) [1]: 160.0 Å^2 | Amino Acid SASA Values, Rose et al. (1985) [1]: 164.5 Å^2 | Amino Acid SASA Values, Empirical [1]: 165.0 Å^2 | Amino Acid SASA Values, Theoretical [1]: 174.0 Å^2

N[C@@H](CO)C(=O)O [Serine]
Amino Acid SASA Values, Miller et al. (1987) [1]: 122.0 Å^2 | Amino Acid SASA Values, Rose et al. (1985) [1]: 129.8 Å^2 | Amino Acid SASA Values, Empirical [1]: 143.0 Å^2 | Amino Acid SASA Values, Theoretical [1]: 155.0 Å^2

C[C@H](N)C(=O)O [Ala]
Amino Acid Hydrophobicity, Eisenberg and Weiss [2]: 0.25 | Amino Acid Hydrophobicity, Engleman et al. [2]: 1.6 | Amino Acid Hydrophobicity, Hoop and Woods [2]: −0.5 | Amino Acid Hydrophobicity, Janin [2]: 0.3 | Amino Acid Hydrophobicity, Kyrie and Doolittle [2]: 1.8

N[C@@H](CC(=O)O)C(=O)O [Aspartate]
Amino Acid SASA Values, Miller et al. (1987) [1]: 151.0 Å^2 | Amino Acid SASA Values, Rose et al. (1985) [1]: 158.7 Å^2 | Amino Acid SASA Values, Empirical [1]: 187.0 Å^2 | Amino Acid SASA Values, Theoretical [1]: 193.0 Å^2

N[C@@H](CC(=O)O)C(=O)O [Asp]
Amino Acid Hydrophobicity, Eisenberg and Weiss [2]: −0.72 | Amino Acid Hydrophobicity, Engleman et al. [2]: −9.2 | Amino Acid Hydrophobicity, Hoop and Woods [2]: 3.0 | Amino Acid Hydrophobicity, Janin [2]: −0.6 | Amino Acid Hydrophobicity, Kyrie and Doolittle [2]: −3.5

CSCC[C@H](N)C(=O)O [Met]
Amino Acid Hydrophobicity, Eisenberg and Weiss [2]: 0.26 | Amino Acid Hydrophobicity, Engleman et al. [2]: 3.4 | Amino Acid Hydrophobicity, Hoop and Woods [2]: −1.3 | Amino Acid Hydrophobicity, Janin [2]: 0.4 | Amino Acid Hydrophobicity, Kyrie and Doolittle [2]: 1.9

N=C(N)NCCC[C@H](N)C(=O)O [Arg]
Amino Acid Hydrophobicity, Eisenberg and Weiss [2]: −1.80 | Amino Acid Hydrophobicity, Engleman et al. [2]: −12.3 | Amino Acid Hydrophobicity, Hoop and Woods [2]: 3.0 | Amino Acid Hydrophobicity, Janin [2]: −1.4 | Amino Acid Hydrophobicity, Kyrie and Doolittle [2]: −4.5

N[C@@H](CCC(=O)O)C(=O)O [Glutamate]
Amino Acid SASA Values, Miller et al. (1987) [1]: 183.0 Å^2 | Amino Acid SASA Values, Rose et al. (1985) [1]: 186.2 Å^2 | Amino Acid SASA Values, Empirical [1]: 214.0 Å^2

C[C@H](N)C(=O)O [Alanine]
Amino Acid SASA Values, Miller et al. (1987) [1]: 113.0 Å^2 | Amino Acid SASA Values, Rose et al. (1985) [1]: 118.1 Å^2 | Amino Acid SASA Values, Empirical [1]: 121.0 Å^2 | Amino Acid SASA Values, Theoretical [1]: 129.0 Å^2

NCC(=O)O [Glycine]
Amino Acid SASA Values, Miller et al. (1987) [1]: 85.0 Å^2 | Amino Acid SASA Values, Rose et al. (1985) [1]: 88.1 Å^2 | Amino Acid SASA Values, Empirical [1]: 97.0 Å^2 | Amino Acid SASA Values, Theoretical [1]: 104.0 Å^2

C[C@@H](O)[C@H](N)C(=O)O [Threonine]
Amino Acid SASA Values, Miller et al. (1987) [1]: 146.0 Å^2 | Amino Acid SASA Values, Rose et al. (1985) [1]: 152.5 Å^2 | Amino Acid SASA Values, Empirical [1]: 163.0 Å^2 | Amino Acid SASA Values, Theoretical [1]: 172.0 Å^2

O=C(O)[C@@H]1CCCN1 [Proline]
Amino Acid SASA Values, Miller et al. (1987) [1]: 143.0 Å^2 | Amino Acid SASA Values, Rose et al. (1985) [1]: 146.8 Å^2 | Amino Acid SASA Values, Empirical [1]: 154.0 Å^2

NC(=O)C[C@H](N)C(=O)O [Asn]
Amino Acid Hydrophobicity, Eisenberg and Weiss [2]: −0.64 | Amino Acid Hydrophobicity, Engleman et al. [2]: −4.8 | Amino Acid Hydrophobicity, Hoop and Woods [2]: 0.2 | Amino Acid Hydrophobicity, Janin [2]: −0.5 | Amino Acid Hydrophobicity, Kyrie and Doolittle [2]: −3.5

N[C@@H](Cc1c[nH]cn1)C(=O)O [His]
Amino Acid Hydrophobicity, Eisenberg and Weiss [2]: −0.40 | Amino Acid Hydrophobicity, Engleman et al. [2]: −3.0 | Amino Acid Hydrophobicity, Hoop and Woods [2]: −0.5 | Amino Acid Hydrophobicity, Janin [2]: −0.1 | Amino Acid Hydrophobicity, Kyrie and Doolittle [2]: −3.2

NCCCC[C@H](N)C(=O)O [Lys]
Amino Acid Hydrophobicity, Eisenberg and Weiss [2]: −1.10 | Amino Acid Hydrophobicity, Engleman et al. [2]: −8.8 | Amino Acid Hydrophobicity, Hoop and Woods [2]: 3.0 | Amino Acid Hydrophobicity, Janin [2]: −1.8 | Amino Acid Hydrophobicity, Kyrie and Doolittle [2]: −3.9

NC(=O)C[C@H](N)C(=O)O [Asparagine]
Amino Acid SASA Values, Miller et al. (1987) [1]: 158.0 Å^2 | Amino Acid SASA Values, Rose et al. (1985) [1]: 165.5 Å^2 | Amino Acid SASA Values, Empirical [1]: 187.0 Å^2 | Amino Acid SASA Values, Theoretical [1]: 195.0 Å^2

CC[C@H](C)[C@H](N)C(=O)O [Isoleucine]
Amino Acid SASA Values, Miller et al. (1987) [1]: 182.0 Å^2 | Amino Acid SASA Values, Rose et al. (1985) [1]: 181.0 Å^2 | Amino Acid SASA Values, Empirical [1]: 195.0 Å^2 | Amino Acid SASA Values, Theoretical [1]: 197.0 Å^2

N[C@@H](CCC(=O)O)C(=O)O [Glu]
Amino Acid Hydrophobicity, Eisenberg and Weiss [2]: −0.62 | Amino Acid Hydrophobicity, Engleman et al. [2]: −8.2 | Amino Acid Hydrophobicity, Hoop and Woods [2]: 3.0 | Amino Acid Hydrophobicity, Janin [2]: −0.7 | Amino Acid Hydrophobicity, Kyrie and Doolittle [2]: −3.5

N=C(N)NCCC[C@H](N)C(=O)O [Arginine]
Amino Acid SASA Values, Miller et al. (1987) [1]: 241.0 Å^2 | Amino Acid SASA Values, Rose et al. (1985) [1]: 256.0 Å^2 | Amino Acid SASA Values, Empirical [1]: 265.0 Å^2 | Amino Acid SASA Values, Theoretical [1]: 274.0 Å^2

N[C@@H](CS)C(=O)O [Cysteine]
Amino Acid SASA Values, Miller et al. (1987) [1]: 140.0 Å^2 | Amino Acid SASA Values, Rose et al. (1985) [1]: 146.1 Å^2 | Amino Acid SASA Values, Empirical [1]: 148.0 Å^2 | Amino Acid SASA Values, Theoretical [1]: 167.0 Å^2

N[C@@H](CO)C(=O)O [Ser]
Amino Acid Hydrophobicity, Eisenberg and Weiss [2]: −0.26 | Amino Acid Hydrophobicity, Engleman et al. [2]: 0.6 | Amino Acid Hydrophobicity, Hoop and Woods [2]: 0.3 | Amino Acid Hydrophobicity, Janin [2]: −0.1 | Amino Acid Hydrophobicity, Kyrie and Doolittle [2]: −0.8

N[C@@H](Cc1c[nH]cn1)C(=O)O [Histidine]
Amino Acid SASA Values, Miller et al. (1987) [1]: 194.0 Å^2 | Amino Acid SASA Values, Rose et al. (1985) [1]: 202.5 Å^2 | Amino Acid SASA Values, Empirical [1]: 216.0 Å^2 | Amino Acid SASA Values, Theoretical [1]: 224.0 Å^2

N[C@@H](Cc1ccc(O)cc1)C(=O)O [Tyr]
Amino Acid Hydrophobicity, Eisenberg and Weiss [2]: 0.02 | Amino Acid Hydrophobicity, Engleman et al. [2]: −0.7 | Amino Acid Hydrophobicity, Hoop and Woods [2]: −2.3 | Amino Acid Hydrophobicity, Janin [2]: −0.4 | Amino Acid Hydrophobicity, Kyrie and Doolittle [2]: −1.3

N[C@@H](Cc1c[nH]c2ccccc12)C(=O)O [Tryptophan]
Amino Acid SASA Values, Miller et al. (1987) [1]: 259.0 Å^2 | Amino Acid SASA Values, Rose et al. (1985) [1]: 266.3 Å^2 | Amino Acid SASA Values, Empirical [1]: 264.0 Å^2 | Amino Acid SASA Values, Theoretical [1]: 285.0 Å^2

CC(C)[C@H](N)C(=O)O [Val]
Amino Acid Hydrophobicity, Eisenberg and Weiss [2]: 0.54 | Amino Acid Hydrophobicity, Engleman et al. [2]: 2.6 | Amino Acid Hydrophobicity, Hoop and Woods [2]: −1.5 | Amino Acid Hydrophobicity, Janin [2]: 0.6 | Amino Acid Hydrophobicity, Kyrie and Doolittle [2]: 4.2

N[C@@H](CS)C(=O)O [Cys]
Amino Acid Hydrophobicity, Eisenberg and Weiss [2]: 0.04 | Amino Acid Hydrophobicity, Engleman et al. [2]: 2.0 | Amino Acid Hydrophobicity, Hoop and Woods [2]: −1.0 | Amino Acid Hydrophobicity, Janin [2]: 0.9 | Amino Acid Hydrophobicity, Kyrie and Doolittle [2]: 2.5

N[C@@H](Cc1ccc(O)cc1)C(=O)O [Tyrosine]
Amino Acid SASA Values, Miller et al. (1987) [1]: 229.0 Å^2 | Amino Acid SASA Values, Rose et al. (1985) [1]: 236.8 Å^2 | Amino Acid SASA Values, Empirical [1]: 255.0 Å^2 | Amino Acid SASA Values, Theoretical [1]: 263.0 Å^2

N[C@@H](Cc1ccccc1)C(=O)O [Phenylalanine]
Amino Acid SASA Values, Miller et al. (1987) [1]: 218.0 Å^2 | Amino Acid SASA Values, Rose et al. (1985) [1]: 222.8 Å^2 | Amino Acid SASA Values, Empirical [1]: 228.0 Å^2 | Amino Acid SASA Values, Theoretical [1]: 240.0 Å^2

NCCCC[C@H](N)C(=O)O [Lysine]
Amino Acid SASA Values, Miller et al. (1987) [1]: 211.0 Å^2 | Amino Acid SASA Values, Rose et al. (1985) [1]: 225.8 Å^2 | Amino Acid SASA Values, Empirical [1]: 230.0 Å^2 | Amino Acid SASA Values, Theoretical [1]: 236.0 Å^2

C[C@@H](O)[C@H](N)C(=O)O [Thr]
Amino Acid Hydrophobicity, Eisenberg and Weiss [2]: −0.18 | Amino Acid Hydrophobicity, Engleman et al. [2]: 1.2 | Amino Acid Hydrophobicity, Hoop and Woods [2]: −0.4 | Amino Acid Hydrophobicity, Janin [2]: −0.2 | Amino Acid Hydrophobicity, Kyrie and Doolittle [2]: −0.7

N[C@@H](Cc1c[nH]c2ccccc12)C(=O)O [Trp]
Amino Acid Hydrophobicity, Eisenberg and Weiss [2]: 0.37 | Amino Acid Hydrophobicity, Engleman et al. [2]: 1.9 | Amino Acid Hydrophobicity, Hoop and Woods [2]: −3.4 | Amino Acid Hydrophobicity, Janin [2]: 0.3 | Amino Acid Hydrophobicity, Kyrie and Doolittle [2]: −0.9

CSCC[C@H](N)C(=O)O [Methionine]
Amino Acid SASA Values, Miller et al. (1987) [1]: 204.0 Å^2 | Amino Acid SASA Values, Rose et al. (1985) [1]: 203.4 Å^2 | Amino Acid SASA Values, Empirical [1]: 203.0 Å^2 | Amino Acid SASA Values, Theoretical [1]: 224.0 Å^2

N[C@@H](Cc1ccccc1)C(=O)O [Phe]
Amino Acid Hydrophobicity, Eisenberg and Weiss [2]: 0.61 | Amino Acid Hydrophobicity, Engleman et al. [2]: 3.7 | Amino Acid Hydrophobicity, Hoop and Woods [2]: −2.5 | Amino Acid Hydrophobicity, Janin [2]: 0.5 | Amino Acid Hydrophobicity, Kyrie and Doolittle [2]: 2.8
